Data set [1] deals with Pieris brassicae. The data set is described as follows: Juvenile hormone mimicking activity against fifth-instar larval stage of Pieris brassicae reared on cabbage plants assessed as morphogenetic changes measured per larvae applied topically to dorsal surface of larvae measured post pupal ecdysis. The class given is functional.
In data set [2] the test system is Bemisia tabaci. The data set is described as follows: Juvenile hormone mimicking activity against Bemisia tabaci (sweet potato whitefly) infested cotton assessed as suppression of adult emergence at 400 g/ha applied as wettable powder through spray measured on day 12 under field conditions (reference value: 89%). The format is functional.
For data set [3], the system named is Bemisia tabaci. The data set is described as follows: Juvenile hormone mimicking activity against Bemisia tabaci (sweet potato whitefly) infested cotton assessed as suppression of nymph emergence at 100 g/ha applied as wettable powder through spray measured on day 12 under field conditions (reference value: 92%). The class given is functional.
Data set [4] concerns Bemisia tabaci. The data set is described as follows: Juvenile hormone mimicking activity against Bemisia tabaci (sweet potato whitefly) infested cotton assessed as suppression of nymph emergence at 400 g/ha applied as wettable powder through spray measured on day 12 under field conditions (reference value: 92%). The class given is functional.
Data set [5] relates to Bemisia tabaci. The data set is described as follows: Juvenile hormone mimicking activity against Bemisia tabaci (sweet potato whitefly) infested cotton assessed as suppression of nymph emergence at 200 g/ha applied as wettable powder through spray measured on day 12 under field conditions (reference value: 92%). The format is functional.
In data set [6] the test system is Bemisia tabaci. The data set is described as follows: Juvenile hormone mimicking activity against Bemisia tabaci (sweet potato whitefly) infested cotton assessed as suppression of adult emergence at 200 g/ha applied as wettable powder through spray measured on day 12 under field conditions (reference value: 89%). The format is functional.
For data set [7], the system named is Bemisia tabaci. The data set is described as follows: Juvenile hormone mimicking activity against Bemisia tabaci (sweet potato whitefly) infested cotton assessed as suppression of adult emergence at 100 g/ha applied as wettable powder through spray measured on day 12 under field conditions (reference value: 89%). The class given is functional.
Data set [8] is described as follows: Lipophilicity, log P of the compound. The class given is physicochemical. Conditions: octanol/water.
In data set [9] the test system is Sitophilus oryzae. The data set is described as follows: Juvenile hormone mimicking activity against adult Sitophilus oryzae (rice weevil) infested wheat kernels assessed as suppression of progeny development at 1 ppm applied through diet for 21 days measured after 9 weeks. The format is functional, organism-based.
Data set [10] deals with Sitophilus oryzae. The data set is described as follows: Juvenile hormone mimicking activity against adult Sitophilus oryzae (rice weevil) infested wheat kernels assessed as suppression of progeny development at 1 to 100 ppm applied through diet for 21 days measured after 9 weeks. The format is functional, organism-based.
Data set [11] relates to Pieris brassicae. The data set is described as follows: Ratio of fenoxycarb ID50 to compound ID50 for fifth-instar larval stage of Pieris brassicae. The class given is functional.
For data set [12], the system named is Bemisia tabaci. The data set is described as follows: Juvenile hormone mimicking activity against Bemisia tabaci (sweet potato whitefly) infested cotton assessed as suppression of nymph emergence at 200 g/ha applied as emulsifiable concentrate through spray measured on day 12 under field conditions (reference value: 92%). The format is functional.
Data set [13] has as its system Bemisia tabaci. The data set is described as follows: Juvenile hormone mimicking activity against Bemisia tabaci (sweet potato whitefly) infested cotton assessed as suppression of nymph emergence at 100 g/ha applied as emulsifiable concentrate through spray measured on day 12 under field conditions (reference value: 92%). The class given is functional.
For data set [14], the system named is Bemisia tabaci. The data set is described as follows: Juvenile hormone mimicking activity against Bemisia tabaci (sweet potato whitefly) infested cotton assessed as suppression of nymph emergence at 50 g/ha applied as emulsifiable concentrate through spray measured on day 12 under field conditions (reference value: 92%). The format is functional.
The subject of data set [15] is Bemisia tabaci. The data set is described as follows: Juvenile hormone mimicking activity against Bemisia tabaci (sweet potato whitefly) infested cotton assessed as suppression of adult emergence at 50 g/ha applied as emulsifiable concentrate through spray measured on day 12 under field conditions (reference value: 89%). The format is functional.
Data set [16] relates to Bemisia tabaci. The data set is described as follows: Juvenile hormone mimicking activity against Bemisia tabaci (sweet potato whitefly) infested cotton assessed as suppression of adult emergence at 200 g/ha applied as emulsifiable concentrate through spray measured on day 12 under field conditions (reference value: 89%). The format is functional.
In data set [17] the test system is Bemisia tabaci. The data set is described as follows: Juvenile hormone mimicking activity against Bemisia tabaci (sweet potato whitefly) infested cotton assessed as suppression of adult emergence at 100 g/ha applied as emulsifiable concentrate through spray measured on day 12 under field conditions (reference value: 89%). The format is functional.

Each structure is given as a SMILES string. Calls of active or inactive are those of the source. No cut-off for these calls is given here.

15 compounds from ChEMBL document CHEMBL3045312, “Projuvenoids: synthesis and biological evaluation of sulfenylated, sulfinylated, and sulfonylated carbamates” (Arch Insect Biochem Physiol, 1996) can be followed below.

For `CC(C)OC(=O)N(CCOc1ccc(Oc2ccccc2)cc1)SN(CCOc1ccc(Oc2ccccc2)cc1)C(=O)OC(C)C`, the ID50 in the data set on Pieris brassicae [1] is 22 ng.

As for `CCOC(=O)N(CCOc1ccc(Oc2ccc(Cl)cc2)cc1)SN(CCOc1ccc(Oc2ccc(Cl)cc2)cc1)C(=O)OCC`, the ID50 in the data set on Pieris brassicae [1] came to 26 ng.

For the compound `CCOC(=O)NCCOc1ccc(Oc2ccc(Cl)cc2)cc1`, in the data set with Pieris brassicae [1], the ID50 came to 22 ng.

In general, logP refers to a log measure of how a compound divides between an organic and an aqueous phase. Read a high logP as a more lipophilic compound. As to `CCOC(=O)NCCOc1ccc(Oc2ccccc2)cc1` [PHENOXYCARB], the Activity is listed as 20% in the data set with Bemisia tabaci [2]; 41% with Bemisia tabaci [3]; 21% in the data set on Bemisia tabaci [4]; 34% in the data set with Bemisia tabaci [5]; 29% in the data set with Bemisia tabaci [6]; 43% in the data set with Bemisia tabaci [7]. Also, the ID50 in the data set with Pieris brassicae [1] was determined as 21 ng. In data set [8], this compound had a lipophilicity (logP) of 4.07. The result in the data set on Sitophilus oryzae [9] was Active.

Take `CCOC(=O)CC(SP(=S)(OC)OC)C(=O)OCC` (configuration not stated): the result with Sitophilus oryzae [10] was Active.

For `CCCCCCCCCCCCOC(=O)N(CCCC)SN(CCOc1ccc(Oc2ccccc2)cc1)C(=O)OCC`, the ID50 in the data set on Pieris brassicae [1] worked out at 2.8 ng. Further, the Ratio in the data set with Pieris brassicae [11] is given as 6. Also, the outcome with Sitophilus oryzae [9] was Active.

As to `CCCCCCCCOC(=O)N(C)SN(CCOc1ccc(Oc2ccccc2)cc1)C(=O)OCC`, the ID50 in the data set with Pieris brassicae [1] amounted to 3.4 ng. Also, in the data set on Pieris brassicae [11], the Ratio was 6.

For `CCOC(=O)N(CCOc1ccc(Oc2ccccc2)cc1)S(=O)(=O)N(CCOc1ccc(Oc2ccccc2)cc1)C(=O)OCC`, the ID50 with Pieris brassicae [1] was >100 ng.

As for `CC(C)OC(=O)N(CCOc1ccc(Oc2ccccc2)cc1)[S+]([O-])N(CCOc1ccc(Oc2ccccc2)cc1)C(=O)OC(C)C`, the ID50 in the data set on Pieris brassicae [1] came out at 20 ng.

Regarding `COC(C)(C)CCC[C@H](C)C/C=C/C(C)=C/C(=O)OC(C)C` [METHOPRENE], in the data set with Pieris brassicae [1], the ID50 came to 60 ng. Moreover, the log partition coefficient (logP) in data set [8] was found to be 5.21. In addition, the outcome with Sitophilus oryzae [10] was Active.

For the compound `CCOC(=O)N(CCOc1ccc(Oc2ccccc2)cc1)[S+]([O-])N(CCOc1ccc(Oc2ccccc2)cc1)C(=O)OCC`, in the data set on Pieris brassicae [1], the ID50 came out at 2.2 ng. In addition, the Activity is reported as 16% in the data set with Bemisia tabaci [12]; 33% with Bemisia tabaci [13]; 47% in the data set on Bemisia tabaci [14]; 36% with Bemisia tabaci [15]; 19% in the data set on Bemisia tabaci [16]; 31% with Bemisia tabaci [17]. In the data set with Sitophilus oryzae [9], the outcome was Active.

On to `CCOC(=O)N(CCOc1ccc(Oc2ccc(Cl)cc2)cc1)[S+]([O-])N(CCOc1ccc(Oc2ccc(Cl)cc2)cc1)C(=O)OCC`, for which the ID50 in the data set with Pieris brassicae [1] came out at 9 ng.

For the compound `CCOC(=O)N(CCOc1ccc(Oc2ccccc2)cc1)SN(CCOc1ccc(Oc2ccccc2)cc1)C(=O)OCC`, the ID50 in the data set with Pieris brassicae [1] is on record as 2.8 ng. The outcome with Sitophilus oryzae [9] was Active.

On to `CCCCCCCCCCCCCCCCCN(SN(CCOc1ccc(Oc2ccccc2)cc1)C(=O)OCC)C(=O)OCc1ccccc1`, for which the ID50 in the data set with Pieris brassicae [1] was 6.4 ng. The result in the data set on Sitophilus oryzae [9] was Active.

With `CC(C)OC(=O)NCCOc1ccc(Oc2ccccc2)cc1`, the ID50 in the data set on Pieris brassicae [1] is 24 ng.
